The values that follow are results of earlier work, collected in US8778397B2, “Stabilized tolterodine tartrate formulations” (Mylan Inc., priority 2007, dated 2014).

With `Cc1ccc(O)c([C@H](CCN(C(C)C)C(C)C)c2ccccc2)c1` [Tolterodine], the solubility in water was 12 g/1000 mL.
